Patent US9609868B2, “Alkoximino-substituted anthranilic acid diamides as pesticides” (BAYER CROPSCIENCE AKTIENGESELLSCHAFT, priority 2013, dated 2017)

Assays:
[1] = log P by HPLC on reversed-phase column (C18), EEC directive 79/831 Annex V.A8; type: physicochemical; details: HPLC reversed-phase C18, 43° C., data refer to the E isomer
Experimental: The log P values reported in the tables and Preparation Examples above were determined in accordance with EEC directive 79/831 Annex V.A8 by HPLC (High Performance Liquid Chromatography) using a reversed-phase column (C18). Temperature 43° C. The calibration is effected with unbranched alkan-2-ones (having 3 to 16 carbon atoms), for which the log P values are known.

Myzus persicae = Myzus persicae - spray test (MYZUPE); type: in vivo; details: application rate 100 g/ha, Chinese cabbage leaf disks
Outline: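 Chinese cabbage leaf disks carrying all stages of green peach aphid were sprayed with compound in acetone/DMF with emulsifier, diluted in water. After the chosen period, efficacy was scored as % aphids killed.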

Spodoptera frugiperda = Spodoptera frugiperda - spray test (SPODFR); type: in vivo; details: application rate 100 g/ha, maize leaf disks
Outline: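 Maize leaf disks sprayed with compound in acetone/DMF with alkylaryl polyglycol ether emulsifier, diluted in water to test concentration, then infested with armyworm caterpillars once dry. Efficacy given as % caterpillars killed (100% all, 0% none) after the chosen period.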

Musca domestica = Musca domestica test (MUSCDO); type: in vivo
Experimental: Musca domestica-Test (MUSCDO)
(§1) Solvent: dimethyl sulfoxide
(§2) To produce a suitable preparation of active compound, 10 mg of active compound are mixed with 0.5 ml of dimethyl sulfoxide, and the concentrate is diluted with water to the desired concentration.
Vessels containing a sponge treated with sugar solution and the active compound preparation of the desired concentration are populated with 10 adult houseflies (Musca domestica).
After the desired time, the kill in % is determined. 100% means that all of the flies have been killed; 0% means that none of the flies have been killed.

Lucilia cuprina = Lucilia cuprina test (LUCICU); type: in vivo; details: application rate 100 ppm
Experimental: Lucilia cuprina-Test (LUCICU)
as §1, §2
About 20 L1 larvae of the Australian sheep blowfly (Lucilia cuprina) are transferred into a test vessel containing minced horsemeat and the active compound preparation of the desired concentration.
After the desired time, the kill in % is determined. 100% means that all the larvae have been killed; 0% means that no larvae have been killed.

Phaedon cochleariae = Phaedon cochleariae - spray test (PHAECO); type: in vivo; details: application rate 100 g/ha, Chinese cabbage leaf disks
Outline: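 Active compound in acetone/dimethylformamide with alkylaryl polyglycol ether emulsifier was diluted with emulsifier-containing water to the test concentration and sprayed. After the set period, efficacy was scored as % larvae killed (100% = all beetle larvae dead, 0% = none).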

Tetranychus urticae = Tetranychus urticae - spray test, OP-resistant (TETRUR); type: in vivo; details: application rate 100 g/ha, bean leaf disks
Experimental: Tetranychus urticae—Spray Test, OP-Resistant (TETRUR)
Solvent: 78.0 parts by weight of acetone • • 1.5 parts by weight of dimethylformamide
Emulsifier: 0.5 parts by weight of alkylaryl polyglycol ether
To produce a suitable active compound preparation, 1 part by weight of active compound is mixed with the stated amounts of solvent and emulsifier, and the concentrate is diluted with emulsifier-containing water to the desired concentration.
Disks of bean leaves (Phaseolus vulgaris) infested with all stages of the greenhouse red spider mite (Tetranychus urticae) are sprayed with an active compound preparation of the desired concentration.
After the desired period of time, the efficacy in % is determined. 100% means that all the spider mites have been killed; 0% means that none of the spider mites have been killed.

Boophilus microplus = Boophilus microplus - injection test (BOOPMI Inj); type: in vivo; details: application rate 20 μg/animal, injection into engorged adult female cattle ticks
Experimental: Boophilus microplus—Injection Test (BOOPMI Inj)
as §1
To produce a suitable preparation of active compound, 10 mg of active compound are mixed with 0.5 ml of solvent and the concentrate is diluted with solvent to the desired concentration.
1 μl of the active compound solution is injected into the abdomen of 5 engorged adult female cattle ticks (Boophilus microplus). The animals are transferred into dishes and kept in a climate-controlled room.
The activity is assessed after the desired time by laying of fertile eggs. Eggs which are not visibly fertile are stored in a climate-controlled cabinet until the larvae hatch after about 42 days. An efficacy of 100% means that none of the ticks has laid any fertile eggs; 0% means that all the eggs are fertile.

SMILES | log p ([1]; Table A) | efficacy (aphids killed) (Myzus persicae) [%] | efficacy (caterpillars killed) (Spodoptera frugiperda) [%] | efficacy (kill of adult houseflies) (Musca domestica; application rate 20 ppm) [%] | efficacy (kill of L1 larvae) (Lucilia cuprina) [%] | efficacy (beetle larvae killed) (Phaedon cochleariae) [%] | efficacy (spider mites killed) (Tetranychus urticae) [%] | efficacy (no fertile eggs laid) (Boophilus microplus) [%] | log p ([1]; Table C) | efficacy (kill of adult houseflies) (Musca domestica; application rate 100 ppm) [%]
CCOC(=O)NNC(=O)c1cc(C=NOC)cc(C)c1NC(=O)c1cc(C(F)(F)F)nn1-c1ncccc1Cl [A-17] | 2.92 | 90 | 100 | 80 | 100 | 100 | 90 | 100 |  | 
C#CCOC(=O)NNC(=O)c1cc(C=NOC)cc(C)c1NC(=O)c1cc(C(F)(F)F)nn1-c1ncccc1Cl [A-22] | 2.86 | 100 | 100 | 100 | 100 | 100 | 100 | 100 |  | 
CON=Cc1cc(C)c(NC(=O)c2cc(CF)nn2-c2ncccc2Cl)c(C(=O)NC2CC2)c1 [C-42] |  | 90 | 100 |  | 100 | 100 | 100 | 100 | 2.38 | 90
